Test in all cases: HotSpot kinase profiling
Common to all, as to assay type: biochemical

The target of assay [1] is T1, ERK5/MAPK7 (Homo sapiens, UniProt Q13164).
T1 construct: purchased Reaction Biology Corp
How it is done:
(§1) The binding assay system for profiling kinase activity were based upon HotSpot technology (Reaction Biology Corp.; Malvern, Pa., USA) and utilized radio-isotope-based P81 filtration. […] Substrates for the various kinases tested against Compound 2 (substrate information available on the Reaction Biology Corp. website) were prepared fresh daily in Reaction Buffer. Any required cofactors were then added to the substrate solution. The identification and selection of the appropriate cofactor for each kinase is within the ability of a person skilled in the art. See, for example, Handbook of Assay Development in Drug Discovery, Ed. Lisa K. Minor, 2006: CRC Press, Boca Raton, Fla.; Gao et al., “A broad activity screen in support of a chemogenomic map for kinase signalling research and drug discovery,” Biochem J. 2013, 451(2): 313-28; and Eglen et al., “Drug discovery and the human kinome: Recent trends,” Pharmacology & Therapeutics 2011, 130(2): 144-156. The kinase was then added to the substrate solution and gently mixed. […] This was followed by incubation at room temperature for 2 h. The reaction was terminated and any unreacted phosphate was washed away using 0.1% phosphoric acid prior to detection utilizing a proprietary technology. […] DMSO was used as the negative control.
(§2) Percent inhibition was expressed as an average where the assay was performed more than once, e.g., in duplicate.

Assay [2] addresses T2, JAK3 (Homo sapiens, UniProt P52333).
T2 construct: purchased Reaction Biology Corp
T2 sequence (P52333 1-1124): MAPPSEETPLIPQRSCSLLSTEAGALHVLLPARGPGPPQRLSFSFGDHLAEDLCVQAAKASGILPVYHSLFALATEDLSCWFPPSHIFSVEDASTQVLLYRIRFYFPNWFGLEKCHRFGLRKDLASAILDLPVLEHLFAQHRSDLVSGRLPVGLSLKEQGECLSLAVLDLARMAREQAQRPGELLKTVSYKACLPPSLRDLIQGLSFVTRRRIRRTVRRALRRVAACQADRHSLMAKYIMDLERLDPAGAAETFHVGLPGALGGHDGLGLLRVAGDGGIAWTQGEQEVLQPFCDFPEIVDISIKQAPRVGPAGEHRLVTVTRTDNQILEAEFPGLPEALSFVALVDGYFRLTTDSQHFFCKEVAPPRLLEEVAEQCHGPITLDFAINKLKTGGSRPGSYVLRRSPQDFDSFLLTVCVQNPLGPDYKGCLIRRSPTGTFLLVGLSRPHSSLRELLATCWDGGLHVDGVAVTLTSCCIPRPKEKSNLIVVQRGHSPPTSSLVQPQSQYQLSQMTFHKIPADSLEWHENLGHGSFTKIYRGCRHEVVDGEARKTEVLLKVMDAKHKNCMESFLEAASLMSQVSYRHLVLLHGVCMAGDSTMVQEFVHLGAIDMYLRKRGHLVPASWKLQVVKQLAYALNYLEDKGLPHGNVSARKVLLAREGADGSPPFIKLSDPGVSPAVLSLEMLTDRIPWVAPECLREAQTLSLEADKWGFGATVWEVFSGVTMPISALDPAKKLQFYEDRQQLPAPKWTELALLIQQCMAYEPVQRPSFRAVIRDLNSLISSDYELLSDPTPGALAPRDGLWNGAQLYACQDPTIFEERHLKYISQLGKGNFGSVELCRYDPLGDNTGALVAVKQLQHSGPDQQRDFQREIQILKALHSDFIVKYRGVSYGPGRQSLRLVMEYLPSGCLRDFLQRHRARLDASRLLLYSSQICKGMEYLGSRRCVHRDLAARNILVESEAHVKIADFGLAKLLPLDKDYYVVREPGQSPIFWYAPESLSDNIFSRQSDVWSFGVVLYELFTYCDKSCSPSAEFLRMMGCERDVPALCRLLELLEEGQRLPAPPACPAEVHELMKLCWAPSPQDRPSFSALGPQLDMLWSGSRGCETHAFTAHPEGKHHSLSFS
How it is done:
as §1, §2

The target of assay [3] is T3, MRCKa/CDC42BPA (Homo sapiens, UniProt Q5VT25).
T3 construct: purchased Reaction Biology Corp
T3 sequence (Q5VT25 whole entry): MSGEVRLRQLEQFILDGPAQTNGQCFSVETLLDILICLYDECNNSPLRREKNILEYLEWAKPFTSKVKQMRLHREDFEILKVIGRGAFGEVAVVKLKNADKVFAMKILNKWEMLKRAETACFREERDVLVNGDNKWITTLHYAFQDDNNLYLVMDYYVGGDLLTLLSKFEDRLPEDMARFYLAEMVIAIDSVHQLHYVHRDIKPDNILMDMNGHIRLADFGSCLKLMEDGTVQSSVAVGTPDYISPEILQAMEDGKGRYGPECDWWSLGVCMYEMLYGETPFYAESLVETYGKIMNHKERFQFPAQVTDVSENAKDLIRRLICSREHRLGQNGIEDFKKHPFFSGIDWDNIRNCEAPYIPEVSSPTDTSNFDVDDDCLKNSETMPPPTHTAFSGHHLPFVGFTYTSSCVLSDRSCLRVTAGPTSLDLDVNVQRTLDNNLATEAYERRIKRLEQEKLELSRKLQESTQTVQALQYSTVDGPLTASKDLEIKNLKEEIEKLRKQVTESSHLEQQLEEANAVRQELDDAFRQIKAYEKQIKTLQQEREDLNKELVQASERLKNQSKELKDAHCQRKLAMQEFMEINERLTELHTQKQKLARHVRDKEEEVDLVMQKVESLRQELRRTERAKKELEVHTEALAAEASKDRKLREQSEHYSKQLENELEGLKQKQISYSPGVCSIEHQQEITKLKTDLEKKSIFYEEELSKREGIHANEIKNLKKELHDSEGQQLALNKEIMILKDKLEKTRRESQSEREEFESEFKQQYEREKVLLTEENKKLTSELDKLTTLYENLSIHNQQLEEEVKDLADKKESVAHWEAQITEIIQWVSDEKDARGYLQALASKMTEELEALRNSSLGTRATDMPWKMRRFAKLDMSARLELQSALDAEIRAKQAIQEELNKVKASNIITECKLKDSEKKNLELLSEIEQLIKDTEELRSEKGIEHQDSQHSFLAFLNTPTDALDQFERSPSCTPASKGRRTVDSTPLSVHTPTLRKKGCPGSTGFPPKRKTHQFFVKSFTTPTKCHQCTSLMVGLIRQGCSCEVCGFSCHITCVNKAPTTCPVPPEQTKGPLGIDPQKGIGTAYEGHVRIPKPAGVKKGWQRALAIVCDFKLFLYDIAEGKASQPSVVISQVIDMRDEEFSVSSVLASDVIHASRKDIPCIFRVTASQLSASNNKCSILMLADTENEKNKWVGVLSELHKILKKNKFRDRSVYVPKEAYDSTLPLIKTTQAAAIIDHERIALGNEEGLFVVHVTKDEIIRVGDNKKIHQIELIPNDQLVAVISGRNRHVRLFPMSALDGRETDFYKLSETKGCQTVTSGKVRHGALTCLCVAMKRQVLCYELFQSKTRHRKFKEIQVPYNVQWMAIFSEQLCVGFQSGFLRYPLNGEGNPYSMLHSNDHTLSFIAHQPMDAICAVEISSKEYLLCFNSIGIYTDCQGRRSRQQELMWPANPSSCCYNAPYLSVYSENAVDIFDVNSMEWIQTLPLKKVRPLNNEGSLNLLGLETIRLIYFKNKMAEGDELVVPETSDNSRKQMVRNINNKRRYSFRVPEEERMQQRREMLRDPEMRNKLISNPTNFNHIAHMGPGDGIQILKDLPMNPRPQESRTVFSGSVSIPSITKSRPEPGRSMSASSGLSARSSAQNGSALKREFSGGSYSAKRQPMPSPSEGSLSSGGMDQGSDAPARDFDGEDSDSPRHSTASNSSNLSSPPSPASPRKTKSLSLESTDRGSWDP
How it is done:
as §1, §2

The target in assay [4] is T4, MST3/STK24 (Homo sapiens, UniProt Q9Y6E0).
T4 construct: purchased Reaction Biology Corp
T4 sequence (Q9Y6E0 whole entry): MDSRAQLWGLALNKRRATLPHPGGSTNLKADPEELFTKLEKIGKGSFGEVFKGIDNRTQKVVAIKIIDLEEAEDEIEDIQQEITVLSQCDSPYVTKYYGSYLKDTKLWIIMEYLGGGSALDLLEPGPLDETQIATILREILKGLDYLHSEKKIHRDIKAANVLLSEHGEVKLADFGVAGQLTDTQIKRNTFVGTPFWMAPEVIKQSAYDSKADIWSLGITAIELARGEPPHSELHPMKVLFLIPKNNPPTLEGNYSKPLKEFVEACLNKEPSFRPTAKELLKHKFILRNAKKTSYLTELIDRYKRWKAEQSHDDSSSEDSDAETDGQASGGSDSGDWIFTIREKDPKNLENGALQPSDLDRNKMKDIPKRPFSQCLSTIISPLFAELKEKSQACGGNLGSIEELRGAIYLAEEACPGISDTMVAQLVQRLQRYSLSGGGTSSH
How it is done:
as §1, §2

The target in assay [5] is T5, PKCeta (Homo sapiens, UniProt P24723).
T5 construct: purchased Reaction Biology Corp
T5 sequence (P24723 whole entry): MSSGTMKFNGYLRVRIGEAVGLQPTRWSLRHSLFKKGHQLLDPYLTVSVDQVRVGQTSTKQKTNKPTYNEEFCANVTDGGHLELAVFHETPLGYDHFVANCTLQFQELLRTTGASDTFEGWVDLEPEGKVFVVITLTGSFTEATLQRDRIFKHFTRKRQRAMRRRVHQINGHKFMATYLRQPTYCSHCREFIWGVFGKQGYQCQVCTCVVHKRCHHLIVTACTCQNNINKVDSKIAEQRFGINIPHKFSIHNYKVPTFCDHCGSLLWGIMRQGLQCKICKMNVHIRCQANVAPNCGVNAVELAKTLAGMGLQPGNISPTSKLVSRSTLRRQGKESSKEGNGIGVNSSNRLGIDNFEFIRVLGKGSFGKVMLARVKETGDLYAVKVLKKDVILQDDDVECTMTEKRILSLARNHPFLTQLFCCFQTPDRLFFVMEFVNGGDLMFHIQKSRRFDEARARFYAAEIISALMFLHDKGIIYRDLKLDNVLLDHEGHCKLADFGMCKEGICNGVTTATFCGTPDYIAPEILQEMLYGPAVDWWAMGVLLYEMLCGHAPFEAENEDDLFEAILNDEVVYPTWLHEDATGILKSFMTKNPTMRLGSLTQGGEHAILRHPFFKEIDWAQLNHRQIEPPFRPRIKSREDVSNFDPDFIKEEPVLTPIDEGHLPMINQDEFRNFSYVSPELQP
How it is done: as §1, §2

Assay [6] addresses T6, PLK4/SAK (Homo sapiens, UniProt O00444).
T6 construct: purchased Reaction Biology Corp
T6 sequence (O00444 1-970): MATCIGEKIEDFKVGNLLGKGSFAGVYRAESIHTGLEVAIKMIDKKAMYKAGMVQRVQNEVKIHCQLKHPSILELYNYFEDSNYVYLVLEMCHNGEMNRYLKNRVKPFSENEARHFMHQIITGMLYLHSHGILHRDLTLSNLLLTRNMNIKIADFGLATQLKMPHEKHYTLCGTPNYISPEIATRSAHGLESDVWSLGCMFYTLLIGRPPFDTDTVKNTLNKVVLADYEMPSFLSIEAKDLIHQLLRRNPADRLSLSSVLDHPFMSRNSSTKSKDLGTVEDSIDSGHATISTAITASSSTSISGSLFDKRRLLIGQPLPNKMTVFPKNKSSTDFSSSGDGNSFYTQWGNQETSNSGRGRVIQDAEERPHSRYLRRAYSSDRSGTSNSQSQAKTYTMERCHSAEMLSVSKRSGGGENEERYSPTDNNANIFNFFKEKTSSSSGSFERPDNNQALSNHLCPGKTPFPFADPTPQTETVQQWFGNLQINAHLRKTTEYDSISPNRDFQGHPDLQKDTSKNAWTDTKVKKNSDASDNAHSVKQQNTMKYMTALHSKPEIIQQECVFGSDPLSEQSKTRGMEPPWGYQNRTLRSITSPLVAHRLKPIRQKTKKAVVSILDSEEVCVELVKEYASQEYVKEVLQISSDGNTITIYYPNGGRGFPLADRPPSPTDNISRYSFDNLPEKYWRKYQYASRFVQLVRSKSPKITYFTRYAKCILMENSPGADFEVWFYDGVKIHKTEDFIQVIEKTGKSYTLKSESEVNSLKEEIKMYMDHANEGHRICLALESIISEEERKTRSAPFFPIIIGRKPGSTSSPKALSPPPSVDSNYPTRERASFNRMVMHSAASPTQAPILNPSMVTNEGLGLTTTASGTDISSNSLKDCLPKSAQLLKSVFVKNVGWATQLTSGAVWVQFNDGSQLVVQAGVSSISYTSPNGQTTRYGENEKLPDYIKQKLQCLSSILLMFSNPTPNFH
How it is done:
as §1, §2

[7] abbreviates: read-out: % Enzyme Activity (relative to DMSO controls) Run 1.
Where [8] appears, read: read-out: % Enzyme Activity (relative to DMSO controls) Run 2.

Inhibition and remaining activity data for 1 molecule are collected here from patent US9492471B2, “Methods of treating a disease or disorder associated with Bruton'S Tyrosine Kinase” (Celgene Avilomics Research, Inc., priority 2013, dated 2016).

Read-outs that look alike come from different tables or passages of the source.

T1 sequence (Q13164 whole entry): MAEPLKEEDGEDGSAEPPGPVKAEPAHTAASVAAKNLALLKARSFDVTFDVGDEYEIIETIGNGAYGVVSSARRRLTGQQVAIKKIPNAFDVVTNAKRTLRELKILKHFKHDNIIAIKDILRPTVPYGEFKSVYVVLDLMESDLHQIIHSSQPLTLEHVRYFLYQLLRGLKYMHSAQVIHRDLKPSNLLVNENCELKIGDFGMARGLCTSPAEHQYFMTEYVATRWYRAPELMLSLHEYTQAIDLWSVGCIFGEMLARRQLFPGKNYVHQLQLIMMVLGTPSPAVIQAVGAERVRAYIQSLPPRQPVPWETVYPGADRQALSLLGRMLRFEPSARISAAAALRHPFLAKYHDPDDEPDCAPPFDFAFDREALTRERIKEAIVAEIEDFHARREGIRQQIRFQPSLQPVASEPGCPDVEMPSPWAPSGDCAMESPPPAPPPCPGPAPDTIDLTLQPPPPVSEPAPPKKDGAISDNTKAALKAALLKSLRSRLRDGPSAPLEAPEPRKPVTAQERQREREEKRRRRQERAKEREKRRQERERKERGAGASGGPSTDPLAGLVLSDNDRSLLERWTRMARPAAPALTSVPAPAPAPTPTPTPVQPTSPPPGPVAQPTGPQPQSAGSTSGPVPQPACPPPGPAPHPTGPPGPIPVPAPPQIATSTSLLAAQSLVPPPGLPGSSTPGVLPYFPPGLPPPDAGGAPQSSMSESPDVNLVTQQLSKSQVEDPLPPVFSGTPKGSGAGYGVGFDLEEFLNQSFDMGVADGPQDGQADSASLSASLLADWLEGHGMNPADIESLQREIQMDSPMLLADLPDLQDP

What is called inhibition is the change of the read-out against control, counted positive when it falls. `C=CC(=O)Nc1cccc(Nc2nc(Nc3ccc(OCCOC)c(F)c3)ncc2F)c1` [Compound 2]: the inhibition at 3 µM was -0.37% in assay [1]; 97.4% in assay [2]; -14.3% in assay [3]; 14.5% in assay [4]; -12.8% in assay [5]; 45% in assay [6]. Also, the remaining activity at 3 µM stood at 101% in assay [1] (setting [7]); 99.9% in assay [1] (setting [8]); 2.53% in assay [2] (setting [7]); 2.73% in assay [2] (setting [8]); 114% in assay [3] (setting [7]); 115% in assay [3] (setting [8]). The remaining activity at 3 µM in assay [4] (setting [7]) amounted to 86.6%; in assay [4] (setting [8]), 84.5%; in assay [5] (setting [7]), 109%; in assay [5] (setting [8]), 117%; in assay [6] (setting [7]), 54.8%; in assay [6] (setting [8]), 55.2%.
